The source of these data is ChEMBL document CHEMBL4725284, “Junceellolide B, a novel inhibitor of Hepatitis B virus” (Bioorg Med Chem, 2020).

pEC50: −log10 of the molar value. Bounds are passed on as bounds.

The test system of series [1] is Hepatitis B virus. Put plainly: Antiviral activity against HBV infected in human HepAD38 cells assessed as inhibition of viral DNA at 10 uM incubated for 4 days by SYBR green dye based RT-PCR analysis relative to control. The format is functional. To be noted: HePAD38, 96 h, time 4 day.
The subject of series [2] is Hepatitis B virus. As to the kind of experiment: Antiviral activity against HBV infected in human HepAD38 cells assessed as inhibition of viral DNA incubated for 4 days by SYBR green dye based RT-PCR analysis. The class given is functional, organism-based. As to conditions: HePAD38, 96 h.
Series [3] in a line: Cytotoxicity against human HePAD38 cells assessed as cell viability incubated for 72 hrs by MTT assay. The format is cell-based. (Tetrazolium assays rely on reduction of a dye to a coloured formazan, in cell work by metabolically active cells.)
Series [4] in a line: Cytotoxicity against human HepG2 cells assessed as cell viability incubated for 72 hrs by MTT assay. The class given is cell-based.

On to `C=C1/C=C/[C@H](OC(C)=O)[C@@]2(C)[C@@H](OC(C)=O)CC[C@]3(CO3)[C@@H]2[C@H](OC(C)=O)[C@]2(O)[C@@H](C)C(=O)O[C@H]2[C@H]1Cl` [JUNCEELLOLIDE C], for which the inhibition at 10 µM in the series on Hepatitis B virus [1] was determined as 63%. The negative logarithm of the EC50 (pEC50) in the series with Hepatitis B virus [2] was 5.28. Also, the CC50 at 72 h in series [3] and in series [4] was greater than 100 µM each time.
Take `C=C1/C=C/[C@H](OC(=O)CC)[C@@]2(C)[C@@H](OC(C)=O)CC[C@]3(CO3)[C@@H]2[C@H](OC(C)=O)[C@]2(O)[C@@H](C)C(=O)O[C@H]2[C@H]1Cl`: the inhibition at 10 µM with Hepatitis B virus [1] was 75%. The negative logarithm of the EC50 (pEC50) with Hepatitis B virus [2] is 6.09. For the same molecule, the 50% cytotoxic concentration (CC50) at 72 h in series [3] and in series [4] was greater than 100 µM each time.
As to `CC(=O)OCC1=C/[C@@H]2OC(=O)[C@H](C)[C@@]2(O)[C@@H](OC(C)=O)[C@H]2[C@]3(CC[C@H](OC(C)=O)[C@]2(C)[C@@H](OC(=O)COC(=O)CC(C)C)/C=C\1)CO3`, the inhibition at 10 µM in the series with Hepatitis B virus [1] stood at 0%. Also, the cytotoxic concentration (CC50) at 72 h in series [3] and in series [4] was greater than 100 µM each time.
For `C=C1[C@H](Cl)[C@@H]2OC(=O)[C@H](C)[C@]23O[C@@H]1[C@@H](O)[C@H](OC(C)=O)[C@@]1(C)[C@@H](OC(C)=O)[C@@H](OC(C)=O)C[C@]2(CO2)[C@@H]1[C@@H]3OC(C)=O`, the inhibition at 10 µM with Hepatitis B virus [1] is 31%. Besides, the CC50 at 72 h in series [3] and in series [4] was greater than 100 µM each time.
Regarding `C=C1C[C@H](OC(C)=O)[C@H](OC(C)=O)[C@]2(C)[C@@H](OC(C)=O)/C=C/C(=C)[C@H](Cl)[C@@H]3OC(=O)[C@H](C)[C@@]3(O)[C@@H](OC(C)=O)[C@@H]12` [FRAJUNOLIDE H], the inhibition at 10 µM with Hepatitis B virus [1] stood at 25%. For the same molecule, the CC50 at 72 h in series [3] and in series [4] was greater than 100 µM throughout.
On to `C=C1CC[C@H](OC(C)=O)[C@]2(C)[C@@H](OC(C)=O)C[C@@H](OC(C)=O)/C(C)=C\[C@@H]3OC(=O)[C@H](C)[C@@]3(O)[C@@H](OC(C)=O)[C@@H]12`, for which the inhibition at 10 µM with Hepatitis B virus [1] stood at 31%. Besides, the half-maximal cytotoxic concentration (CC50) at 72 h in series [3] and in series [4] was greater than 100 µM each time.
On to `C=C1CC[C@H](OC(C)=O)[C@@]2(C)[C@H]1[C@H](OC(C)=O)[C@@]13O[C@@H](C(=C)[C@H](Cl)[C@@H]1OC(=O)[C@@H]3C)[C@@H](O)[C@@H]2OC(C)=O`, for which, in the series on Hepatitis B virus [1], the inhibition at 10 µM turned out to be 10%. Besides, the half-maximal cytotoxic concentration (CC50) at 72 h in series [3] and in series [4] was greater than 100 µM in each case.
Consider `C=C1/C=C\[C@H](OC(=O)COC(=O)CC(C)C)[C@@]2(C)[C@@H](OC(C)=O)CC[C@]3(CO3)[C@@H]2[C@H](OC(C)=O)[C@]2(O)[C@@H](C)C(=O)O[C@H]2[C@H]1Cl` [FRAJUNOLIDE G], for which the inhibition at 10 µM in the series with Hepatitis B virus [1] amounted to 0%. The CC50 at 72 h in series [3] and in series [4] was greater than 100 µM throughout.
In the case of `C=C1CC[C@H](OC(C)=O)[C@]2(C)[C@@H](OC(C)=O)/C=C/C(COC(C)=O)=C\[C@@H]3OC(=O)[C@H](C)[C@@]3(O)[C@@H](OC(C)=O)[C@@H]12`, the inhibition at 10 µM with Hepatitis B virus [1] came out at 0%. Moreover, the CC50 at 72 h in series [3] and in series [4] was greater than 100 µM throughout.
`C=C1[C@H](Cl)[C@@H]2OC(=O)[C@H](C)[C@]23O[C@@H]1[C@@H](OC(C)=O)[C@H](OC(C)=O)[C@@]1(C)[C@@H](OC(C)=O)CC[C@]2(CO2)[C@@H]1[C@@H]3OC(C)=O`: in the series with Hepatitis B virus [1], the inhibition at 10 µM worked out at 17%. The CC50 at 72 h in series [3] and in series [4] was greater than 100 µM throughout.
With `C=C1CC[C@H](OC(C)=O)[C@]2(C)[C@@H](OC(C)=O)C[C@@H](O)/C(C)=C\[C@@H]3OC(=O)[C@H](C)[C@@]3(O)[C@@H](OC(C)=O)[C@@H]12`, the inhibition at 10 µM in the series with Hepatitis B virus [1] amounted to 12%. The CC50 at 72 h in series [3] and in series [4] was greater than 100 µM in each case.
As to `C=C1/C=C\[C@H](OC(C)=O)[C@@]2(C)[C@@H](OC(C)=O)CC[C@]3(CO3)[C@@H]2[C@H](OC(C)=O)[C@]2(O)[C@@H](C)C(=O)O[C@H]2[C@H]1Cl`, in the series with Hepatitis B virus [1], the inhibition at 10 µM is 0%. Besides, the CC50 at 72 h in series [3] and in series [4] was greater than 100 µM throughout.
`C=C1CC[C@H](OC(C)=O)[C@]2(C)[C@@H](OC(C)=O)C[C@@H](OC(C)=O)/C(CO)=C\[C@@H]3OC(=O)[C@H](C)[C@@]3(O)[C@@H](OC(C)=O)[C@@H]12`: in the series on Hepatitis B virus [1], the inhibition at 10 µM came out at 0%. Further, the cytotoxic concentration (CC50) at 72 h in series [3] and in series [4] was greater than 100 µM throughout.
In the case of `C=C1CC[C@H](OC(C)=O)[C@]2(C)[C@@H](OC(C)=O)C[C@@]3(O)O[C@]4([C@@H](C)C(=O)O[C@H]4[C@@H](Cl)C3=C)[C@@H](OC(C)=O)[C@@H]12`, the inhibition at 10 µM in the series on Hepatitis B virus [1] was 40%. Moreover, the CC50 at 72 h in series [3] and in series [4] was greater than 100 µM throughout.
Take `CC(=O)OCC1=C/[C@@H]2OC(=O)[C@H](C)[C@@]2(O)[C@@H](OC(C)=O)[C@H]2[C@]3(CC[C@H](OC(C)=O)[C@]2(C)[C@@H](OC(C)=O)/C=C\1)CO3`: the inhibition at 10 µM in the series with Hepatitis B virus [1] amounted to 0%. In addition, the CC50 at 72 h in series [3] and in series [4] was greater than 100 µM throughout.
As for `CC(=O)OCC(=O)O[C@H]1/C=C\C(CCl)=C/[C@@H]2OC(=O)[C@H](C)[C@@]2(O)[C@@H](OC(C)=O)[C@H]2[C@@](O)(CCl)CC[C@H](OC(C)=O)[C@]12C`, in the series on Hepatitis B virus [1], the inhibition at 10 µM was found to be 58%. The CC50 at 72 h in series [3] and in series [4] was greater than 100 µM in each case.
Regarding `C=C1[C@H]2O[C@H]2[C@H](OC(C)=O)[C@@]2(C)[C@@H](OC(C)=O)CC[C@]3(CO3)[C@@H]2[C@H](OC(C)=O)[C@]2(O)[C@@H](C)C(=O)O[C@H]2[C@H]1Cl`, in the series on Hepatitis B virus [1], the inhibition at 10 µM turned out to be 29%. The CC50 at 72 h in series [3] and in series [4] was greater than 100 µM in each case.
With `C=C1[C@H](Cl)[C@@H]2OC(=O)[C@H](C)[C@]23O[C@]1(O)C[C@H](OC(C)=O)[C@@]1(C)[C@@H](OC(C)=O)CC[C@]2(CO2)[C@@H]1[C@@H]3OC(C)=O`, in the series with Hepatitis B virus [1], the inhibition at 10 µM was 4%. For the same molecule, the cytotoxic concentration (CC50) at 72 h in series [3] and in series [4] was greater than 100 µM in each case.

In general, inhibition refers to the relative decrease from the control value, in per cent. For orientation: pEC50 means −log10 of the EC50, conventionally taken in molar units. Usually CC50 stands for the concentration that lowers cell viability or growth by half.
